# Like-named read-outs stand apart in the source and are kept apart here.
# Key:
# PRC2 containing wt EZH2 = target: T1, PRC2 containing wt EZH2 (Homo sapiens, UniProt Q15910); assay: EZH2 pep BSA Brij 4.0 LowE (IC50): 3H-SAM incorporation into biotinylated H3 peptide; assay type: biochemical
# T1 construct: made in house
# Procedure: EZH2 Pep BSA Brij 4.0 LowE (IC50):
# Compound potencies were assessed through incorporation of ^3H-SAM into a biotinylated H3 peptide. Specifically, PRC2 containing wt EZH2 (20 pM), (pentameric complexes prepared in-house) was pre-incubated with ^3H-SAM (0.9 μM), 2 μM H3K27me3 activating peptide (H2N-RKQLATKAAR(Kme3)SAPATGGVKKP-amide) and compounds (as 10 point duplicate dose response titrations in DMSO, final assay 0.8% DMSO (v/v)) for 120 min in 50 mM Tris (pH 8.5), 1 mM DTT, 0.07 mM Brij-35, 0.1% BSA, and 0.8% DMSO in a total volume of 12.5 μl. Reaction was initiated with biotinylated H3 substrate peptide (H2N-RKQLATKAAR(Kme1)SAPATGGVKKP-NTPEGBiot) as a 2 μM stock in 12.5 μl of buffer and allowed to react at room temperature for 5 h. Quenching was accomplished by addition of 20 μl of STOP solution (50 mM Tris (pH 8.5), 200 mM EDTA, 2 mM SAH). 35 μl of the quenched solution was transferred to Streptavidin Flashplates, incubated overnight, washed, and read in a TopCount Reader (Perkin Elmer). IC50s were calculated relative to fully active and no enzyme control wells using non-linear least square four parameter fits.
# H3K27me3 mark = assay: H3K27me3 Alpha Hela Assay (AlphaLISA); assay type: cell-based; conditions: Hela cells, read-out: EZH2 Cell H3K27me3 Alpha HeLa (EC50 K27me3)
# Procedure: EC50 Measurements for Inhibitors in HeLa Cell Assays
# H3K27me3 Alpha Hela Assay (AlphaLISA). Ten different doses of each test compound (in a series of 3-fold dilutions) were plated in duplicate 384-well tissue culture treated plates (Catalog #781080; Greiner Bio One; Monroe, N.C.). Hela cells grown in culture were trypsinized and counted using a Countess® cell counter (Catalog # C10281; Life Technologies, Grand Island, N.Y.). Cell were diluted to 67,000 cells per mL in 10% DMEM (Catalog #10569-010 Life Technologies, Grand Island, N.Y.) and 15 μL (1,000 cells) were plated into each well using the Biotek MicroFlo™ Select Dispenser (BioTek Instruments, Inc. Vermont, USA),) of the 384-well plate. Plates were incubated at 37° C./5% CO2 for 72 hrs. One of the duplicate plates was processed for HeLa assay and the other for viability.
# To the plate processed for AlphaLISA was added 5 μL per well Cell-Histone Lysis buffer (1×) (Catalog # AL009F1 Perkin Elmer; Waltham, Mass.) and the plate was incubated at RT for 30 minutes on a plate shaker with low speed (Model#4625-Q Thermo Scientific; Waltham, Mass.). Then, 10 μL per well Histone Extraction buffer (catalog # AL009F2; Perkin Elmer; Waltham, Mass.) was added and the plate further incubated at RT for 20 min on plate shaker with low speed. To each well was then added 10 μL per well of a 5× mix of anti-K27me3 acceptor beads plus Biotinylated anti-Histone H3 (C-ter) Antibody (diluted to 3 nM final) (Catalog #AL118 Perkin Elmer; Waltham, Mass.). Dilution of the acceptor beads and then anti-Histone H3 was with 1× Histone Detection buffer (Catalog # AL009F3 Perkin Elmer; Waltham, Mass.) which was produced diluted from the 10× stock provided. The plate was sealed with an aluminum plate sealer and incubated at 23° C. for 60 min. We then added 10 μL 5× solution of Streptavidin Donor beads (Catalog #6760002 Perkin Elmer; Waltham, Mass.) (20 μg/mL final in 1× Histone Detection Buffer), sealed the plate with Aluminum plate sealer and incubated at 23° C. for 30 min. The plates were then read using an EnVision-Alpha Reader (model #2104 Perkin Elmer; Waltham, Mass.).
# Data from both assays was analyzed using Assay Assistant (Constellation Pharmaceuticals In-house product) and Activity Base (IDBS Ltd, Surrey, UK) template. Data files were imported to Assay Assistant and assay conditions were specified. A unique Analysis ID was created and the data files exported to Activity Base. An analysis template was created on Activity Base to measure dose-dependent inhibition of H3K27me3 mark and cell viability respectively. Readout of DMSO wells were used to normalize the data. Resulting curves were fitted using Activity base software Model 205 (IDBS Ltd, Surrey, UK). The data was checked for quality, validated and integrated in excel format using SARview (IDBS Ltd, Surrey, UK).
# [1] = EZH2 pep BSA Brij 4.0 LowE (IC50), 20 pM PRC2 wt EZH2, 0.9 μM 3H-SAM, biotinylated H3 peptide substrate, 2 μM H3K27me3 activating peptide
# [2] = read-out: EZH2 pep BSA Brij 4.0 LowE (IC50); 20 pM PRC2 wt EZH2, 0.9 μM 3H-SAM, biotinylated H3 peptide substrate, 2 μM H3K27me3 activating peptide
# [3] = 20 pM PRC2 wt EZH2, 0.9 μM 3H-SAM, biotinylated H3 peptide substrate, 2 μM H3K27me3 activating peptide; read-out: EZH2 pep BSA Brij 4.0 LowE (IC50)
# T1 sequence (Q15910 whole entry): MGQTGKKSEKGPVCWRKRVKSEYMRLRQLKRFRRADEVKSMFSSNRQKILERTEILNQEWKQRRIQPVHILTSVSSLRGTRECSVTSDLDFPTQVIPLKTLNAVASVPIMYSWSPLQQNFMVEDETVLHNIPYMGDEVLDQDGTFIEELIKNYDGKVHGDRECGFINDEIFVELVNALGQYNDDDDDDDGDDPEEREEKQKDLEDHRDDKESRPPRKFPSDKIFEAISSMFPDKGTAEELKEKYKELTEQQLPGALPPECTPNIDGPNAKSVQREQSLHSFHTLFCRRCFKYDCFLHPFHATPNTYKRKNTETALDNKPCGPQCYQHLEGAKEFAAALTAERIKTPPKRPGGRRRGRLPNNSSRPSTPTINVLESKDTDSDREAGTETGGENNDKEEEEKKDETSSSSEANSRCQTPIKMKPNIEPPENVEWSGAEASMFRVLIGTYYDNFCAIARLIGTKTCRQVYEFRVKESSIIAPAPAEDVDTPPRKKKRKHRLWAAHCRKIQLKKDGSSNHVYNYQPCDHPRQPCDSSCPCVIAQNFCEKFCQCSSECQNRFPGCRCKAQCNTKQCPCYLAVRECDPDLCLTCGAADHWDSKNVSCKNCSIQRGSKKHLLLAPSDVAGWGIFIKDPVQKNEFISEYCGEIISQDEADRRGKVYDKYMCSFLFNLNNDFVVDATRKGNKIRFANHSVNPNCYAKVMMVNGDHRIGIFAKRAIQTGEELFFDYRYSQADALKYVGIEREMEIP
# T1 sequence (O75530 whole entry partner): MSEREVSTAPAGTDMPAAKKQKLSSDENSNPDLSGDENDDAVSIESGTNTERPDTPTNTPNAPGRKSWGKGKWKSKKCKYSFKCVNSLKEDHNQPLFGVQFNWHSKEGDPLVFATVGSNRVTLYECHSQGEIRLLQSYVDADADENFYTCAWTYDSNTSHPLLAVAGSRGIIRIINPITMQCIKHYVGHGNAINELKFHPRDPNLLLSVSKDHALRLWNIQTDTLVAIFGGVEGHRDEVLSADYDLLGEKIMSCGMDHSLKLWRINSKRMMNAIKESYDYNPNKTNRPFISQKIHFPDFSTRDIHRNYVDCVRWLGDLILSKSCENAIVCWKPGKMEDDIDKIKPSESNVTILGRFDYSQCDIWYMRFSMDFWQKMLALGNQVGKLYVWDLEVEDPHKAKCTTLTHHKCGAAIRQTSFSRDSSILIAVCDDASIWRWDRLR
# T1 sequence (Q15022 whole entry partner): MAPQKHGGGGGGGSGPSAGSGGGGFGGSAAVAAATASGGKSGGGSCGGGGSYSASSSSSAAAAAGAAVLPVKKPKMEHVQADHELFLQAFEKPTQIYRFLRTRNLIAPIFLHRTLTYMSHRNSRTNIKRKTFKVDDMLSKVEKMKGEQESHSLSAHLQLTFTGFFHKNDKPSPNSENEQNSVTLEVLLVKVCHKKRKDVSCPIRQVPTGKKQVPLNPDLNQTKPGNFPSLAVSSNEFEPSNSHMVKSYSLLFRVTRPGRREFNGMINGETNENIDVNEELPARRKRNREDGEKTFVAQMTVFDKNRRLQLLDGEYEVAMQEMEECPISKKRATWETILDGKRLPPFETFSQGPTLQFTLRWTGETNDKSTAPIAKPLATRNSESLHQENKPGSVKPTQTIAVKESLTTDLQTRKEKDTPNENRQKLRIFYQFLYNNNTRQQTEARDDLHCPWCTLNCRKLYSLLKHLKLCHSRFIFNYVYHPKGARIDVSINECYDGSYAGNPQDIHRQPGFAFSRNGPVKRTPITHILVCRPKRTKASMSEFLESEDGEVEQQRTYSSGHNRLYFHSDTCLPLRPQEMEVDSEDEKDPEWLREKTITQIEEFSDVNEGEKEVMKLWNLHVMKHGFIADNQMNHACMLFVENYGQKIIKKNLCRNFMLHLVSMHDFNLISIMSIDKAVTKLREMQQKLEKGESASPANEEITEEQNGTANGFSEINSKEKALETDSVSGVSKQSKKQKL
# T1 sequence (Q09028 whole entry partner): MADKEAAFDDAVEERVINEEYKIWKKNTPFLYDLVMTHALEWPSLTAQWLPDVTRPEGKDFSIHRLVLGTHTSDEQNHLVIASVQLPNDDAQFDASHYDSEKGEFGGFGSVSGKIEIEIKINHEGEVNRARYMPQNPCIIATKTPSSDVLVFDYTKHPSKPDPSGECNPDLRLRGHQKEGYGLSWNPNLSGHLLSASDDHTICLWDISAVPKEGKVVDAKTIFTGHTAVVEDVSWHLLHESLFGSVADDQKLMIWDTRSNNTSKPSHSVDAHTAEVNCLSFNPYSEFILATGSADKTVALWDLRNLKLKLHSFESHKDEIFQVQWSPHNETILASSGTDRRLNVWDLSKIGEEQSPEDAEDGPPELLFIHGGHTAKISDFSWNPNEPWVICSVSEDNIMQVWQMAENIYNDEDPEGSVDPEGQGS
# T1 sequence (Q6ZN18 whole entry partner): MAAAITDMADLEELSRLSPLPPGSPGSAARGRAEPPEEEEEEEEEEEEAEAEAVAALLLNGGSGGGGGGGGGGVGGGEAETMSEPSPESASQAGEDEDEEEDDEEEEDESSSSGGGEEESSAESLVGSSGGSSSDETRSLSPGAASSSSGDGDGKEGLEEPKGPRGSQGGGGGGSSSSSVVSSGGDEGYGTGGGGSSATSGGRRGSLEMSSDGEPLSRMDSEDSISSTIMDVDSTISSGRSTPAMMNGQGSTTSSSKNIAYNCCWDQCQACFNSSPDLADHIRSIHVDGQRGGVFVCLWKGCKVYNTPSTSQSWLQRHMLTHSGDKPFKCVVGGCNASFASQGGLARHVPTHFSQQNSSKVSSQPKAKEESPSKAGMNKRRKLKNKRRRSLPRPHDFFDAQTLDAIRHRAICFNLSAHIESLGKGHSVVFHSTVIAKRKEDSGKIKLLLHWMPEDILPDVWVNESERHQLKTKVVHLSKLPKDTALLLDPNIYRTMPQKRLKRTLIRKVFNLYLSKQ
SMILES,IC50 (PRC2 containing wt EZH2; [1]) [µM],EC50 (H3K27me3 mark; 72 hrs) [µM],IC50 (PRC2 containing wt EZH2; [2]) [µM],"EC50 (H3K27me3 mark; Homo sapiens, HeLa, 72 h) [µM]",IC50 (PRC2 containing wt EZH2; [3]) [µM]
COc1cc(C)[nH]c(=O)c1CNC(=O)c1c(C)n(C(C)C2CCN(CC(F)F)C(C)C2)c2ccccc12 (stereo not drawn) [Compound 44],< 0.1,> 2,,,
COc1cc(C)[nH]c(=O)c1CNC(=O)c1c(C)n(C(C)C2CCNC(c3ccccc3F)C2)c2ccccc12 (stereo not drawn) [Compound 66],,,< 0.1,0.4 to 2,
"CCCc1cc(C)[nH]c(=O)c1CNC(=O)c1c(C)n(C(C)C2CCNC(C(F)(F)F)C2)c2ccccc12 (stereo not drawn) [Compound 6, 2-methyl-N-((6-methyl-2-oxo-4-propyl-1,2-dihydropyridin-3-yl)methyl)-1-(1-(2-(trifluoromethyl)piperidin-4-yl)ethyl)-1H-indole-3-carboxamide]",< 0.1,,,< 0.4,
COc1cc(C)[nH]c(=O)c1CNC(=O)c1c(C)n(C(C)C2CCN(C)C(c3cccc(C(=O)O)c3)C2)c2ccccc12 (stereo not drawn) [Compound 92],,0.4 to 2,< 0.1,,
COc1cc(C)[nH]c(=O)c1CNC(=O)c1c(C)n(C(C)C2CCN(CC(F)F)C(C)C2)c2ccccc12 (stereo not drawn) [Compound 46],,< 0.4,< 0.1,,
"COc1cc(C)[nH]c(=O)c1CNC(=O)c1c(C)n(C(C)C2CCN(C)C(CO)C2)c2ccccc12 (stereo not drawn) [Compound 30, 1-(1-(2-(hydroxymethyl)-1-methylpiperidin-4-yl)ethyl)-N-((4-methoxy-6-methyl-2-oxo-1,2-dihydropyridin-3-yl)methyl)-2-methyl-1H-indole-3-carboxamide]",< 0.1,,,> 2,
COc1cc(C)[nH]c(=O)c1CNC(=O)c1c(C)n(C(C)C2CCN(C)C(c3cccc(C#N)c3)C2)c2ccccc12 (stereo not drawn) [Compound 96],,0.4 to 2,< 0.1,,
COc1cc(C)[nH]c(=O)c1CNC(=O)c1c(C)n(C(C)C2CCN(C)C(c3cccc(C#N)c3)C2)c2ccccc12 (stereo not drawn) [Compound 95],< 0.1,,,0.4 to 2,
COc1cc(C)[nH]c(=O)c1CNC(=O)c1c(C)n(C(C)C2CCN(CC(F)(F)F)C(C)C2)c2ccccc12 (stereo not drawn) [Compound 45],< 0.1,< 0.4,,,
"COc1cc(C)[nH]c(=O)c1CNC(=O)c1c(C)n(C(C)C2CCN(C)C(c3ccc(F)cc3)C2)c2ccccc12 (single isomer, unassigned) [Compound 35, 1-(1-(2-(4-fluorophenyl)-1-methylpiperidin-4-yl)ethyl)-N-((4-methoxy-6-methyl-2-oxo-1,2-dihydropyridin-3-yl)methyl)-2-methyl-1H-indole-3-carboxamide]",,< 0.4,,,< 0.1
COc1cc(C)[nH]c(=O)c1CNC(=O)c1c(C)n(C(C)C2CCNC(CC(F)(F)F)C2)c2ccccc12 (stereo not drawn) [Compound 88],< 0.1,> 2,,,
"Cc1cc(OC(F)F)c(CNC(=O)c2c(C)n(C(C)C3CCNC(C(F)(F)F)C3)c3ccccc23)c(=O)[nH]1 (stereo not drawn) [Compound 7, N-((4-(difluoromethoxy)-6-methyl-2-oxo-1,2-dihydropyridin-3-yl)methyl)-2-methyl-1-(1-(2-(trifluoromethyl)piperidin-4-yl)ethyl)-1H-indole-3-carboxamide]",< 0.1,,,< 0.4,
"COc1cc(C)[nH]c(=O)c1CNC(=O)c1c(C)n(C(C)C2CCN(C)CC2C(F)(F)F)c2ccccc12 (single isomer, unassigned) [Compound 27, N-((4-methoxy-6-methyl-2-oxo-1,2-dihydropyridin-3-yl)methyl)-2-methyl-1-(1-(1-methyl-3-(trifluoromethyl)piperidin-4-yl)ethyl)-1H-indole-3-carboxamide]",0.1 to 1,,,> 2,
"Cc1cc(C)c(CNC(=O)c2c(C)n(C(C)C3CCNC(C(F)(F)F)C3)c3ccccc23)c(=O)[nH]1 (single isomer, unassigned) [Compound 17, N-((4,6-dimethyl-2-oxo-1,2-dihydropyridin-3-yl)methyl)-2-methyl-1-(1-(2-(trifluoromethyl)piperidin-4-yl)ethyl)-1H-indole-3-carboxamide]",< 0.1,,,< 0.4,
COc1cc(C)[nH]c(=O)c1CNC(=O)c1c(C)n(C(C)C2CCNC(CC(F)(F)F)C2)c2ccccc12 (stereo not drawn) [Compound 89],< 0.1,0.4 to 2,,,
"COc1cc(C)[nH]c(=O)c1CNC(=O)c1c(C)n(C(C)C2CCN(C)C(c3ccc(F)cc3)C2)c2ccccc12 (single isomer, unassigned) [Compound 34, 1-(1-(2-(4-fluorophenyl)-1-methylpiperidin-4-yl)ethyl)-N-((4-methoxy-6-methyl-2-oxo-1,2-dihydropyridin-3-yl)methyl)-2-methyl-1H-indole-3-carboxamide]",,> 2,,,0.1 to 1
CCC1CC(C(C)n2c(C)c(C(=O)NCc3c(C)cc(C)[nH]c3=O)c3ccccc32)CCN1CC(F)F (stereo not drawn) [Compound 68],,> 2,< 0.1,,
CCC1CC(C(C)n2c(C)c(C(=O)NCc3c(C)cc(C)[nH]c3=O)c3ccccc32)CCN1CC(F)F (stereo not drawn) [Compound 71],,< 0.4,< 0.1,,
COc1cc(C)[nH]c(=O)c1CNC(=O)c1c(C)n(C(C)C2CCN(CC(C)(F)F)C(C)C2)c2ccccc12 (stereo not drawn) [Compound 70],< 0.1,0.4 to 2,,,
"COc1cc(C)[nH]c(=O)c1CNC(=O)c1c(C)n(C(C)C2CCN(C)CC2C(F)(F)F)c2ccccc12 (single isomer, unassigned) [Compound 28, N-((4-methoxy-6-methyl-2-oxo-1,2-dihydropyridin-3-yl)methyl)-2-methyl-1-(1-(1-methyl-3-(trifluoromethyl)piperidin-4-yl)ethyl)-1H-indole-3-carboxamide]",< 0.1,> 2,,,
"CCc1cc(C)[nH]c(=O)c1CNC(=O)c1c(C)n(C(C)C2CCNC(C(F)(F)F)C2)c2ccccc12 (stereo not drawn) [Compound 5, N-((4-ethyl-6-methyl-2-oxo-1,2-dihydropyridin-3-yl)methyl)-2-methyl-1-(1-(2-(trifluoromethyl)piperidin-4-yl)ethyl)-1H-indole-3-carboxamide]",< 0.1,,,< 0.4,
"COc1cc(C)[nH]c(=O)c1CNC(=O)c1c(C)n(C(C)C2CCN(C)C(CF)C2)c2ccccc12 (stereo not drawn) [Compound 29, 1-(1-(2-(fluoromethyl)-1-methylpiperidin-4-yl)ethyl)-N-((4-methoxy-6-methyl-2-oxo-1,2-dihydropyridin-3-yl)methyl)-2-methyl-1H-indole-3-carboxamide]",< 0.1,,,> 2,
COc1cc(C)[nH]c(=O)c1CNC(=O)c1c(C)n(C(C)C2CCNC(CC(F)(F)F)C2)c2ccccc12 (stereo not drawn) [Compound 90],< 0.1,0.4 to 2,,,
COc1cc(C)[nH]c(=O)c1CNC(=O)c1c(C)n(C(C)C2CCN(CC(F)(F)F)C(C)C2)c2ccccc12 (stereo not drawn) [Compound 47],0.1 to 1,> 2,,,

# Reference: patent publication US20180037568A1, “MODULATORS OF METHYL MODIFYING ENZYMES, COMPOSITIONS AND USES THEREOF” (Constellation Pharmaceuticals, Inc., priority 2015, published 2018)
